# Test results from article PMC3469158, “Hesperidin-3′-O-Methylether Is More Potent than Hesperidin in Phosphodiesterase Inhibition and Suppression of Ovalbumin-Induced Airway Hyperresponsiveness” (Evidence-based Complementary and Alternative Medicine : eCAM, 2012).
# Like-named read-outs stand apart in the source and are kept apart here.
# How the values were obtained:
# PDE4 [1] = assay: PDE4 activity in homogenate of guinea pig lungs or hearts (PDE4L); assay type: biochemical; conditions: guinea pig lung or heart homogenate; read-out: IC50 for PDE4 inhibition (PDE4L value)
# Experimental: (§1) Activities of PDE1∼5 in the homogenate of guinea pig lungs or hearts were measured by a two-step procedure according to the previous method, using cAMP with [^3 H]-cAMP or cGMP with [^3 H]-cGMP as substrates. The enzyme preparation (25 μL) was incubated for 30 min at 37°C in a total assay volume of 100 μL containing 50 mM Tris-HCl (pH 7.4), 3 mM MgCl2, 1 mM dithiothreitol, 0.05% BSA, and 1 μM cAMP with 0.2 μCi [^3 H]-cAMP as a substrate alone or in the presence of 0.1 unit calmodulin with 10 μM CaCl2 or 5 μM cGMP, and 1 μM cGMP with 0.2 μCi [^3 H]-cGMP as another substrate alone or in the presence of 0.1 unit calmodulin with 10 μM CaCl2. […] The reagents and homogenate were mixed on ice, and the reaction was initiated by transferring the mixture to a water bath at 37°C. Following a 30 min incubation, the reaction was stopped by transferring the reaction vessel to a bath of boiling water for 3 min. After cooling on ice, 20 μL of a 1 mg/mL solution of Crotalus atrox snake venom was added to the reaction mixture, and the mixture was incubated at 37°C for 10 min. Unreacted [^3 H]-cAMP or [^3 H]-cGMP was removed by the addition of 500 μL of a 1-in-1 Tris-HCl (40 mM) buffer suspension of Dowex resin (1 × 2-400) with incubation on ice for 30 min. Each tube was then centrifuged at 3700 g for 2 min, and 100 μL of the supernatant was removed for liquid scintillation counting.
# [2] = test system: high-affinity rolipram-binding sites (HARBSs), PDE4H; assay: Displacement of [3H]-rolipram from high-affinity rolipram-binding sites of brain cell membranes (PDE4H); design: species or system guinea pig; conditions: for EC50: 2 nM [3H]-rolipram, read-out: EC50 (PDE4H) for displacing [3H]-rolipram binding; for PDE4H/PDE4L ratio: therapeutic ratio, EC50 (PDE4H) / IC50 (PDE4L)
# Experimental: When the above-mentioned guinea pigs were sacrificed, the whole brains were removed and homogenized with a glass/Teflon homogenizer (Glas-Col, Terre Haute, IN, USA) in 10 volumes of cold medium (pH 6.5) containing 20 mM Bis-Tris, 2 mM benzamidine, 2 mM EDTA, 50 mM sodium chloride, 0.1 mM PMSF, and 1 mM dithiothreitol. At 4°C, the homogenate was centrifuged at 170 g for 5 min to remove connective tissues and blood vessels. The suspended homogenate was then recentrifuged at 40,000 g for 30 min to separate the cytosolic and particulate portions. The particulate portion was resuspended in a suspension at a concentration of 400 mg/mL (wet weight/volume), after washing three times with homogenizing buffer. The particulate portion mainly consisted of cell membranes. […] Briefly, the reaction buffer consisted of 50 mM Tris-HCl and 5 mM MgCl2 (pH 7.5). […] After 1 h, the reaction was terminated by moving the reaction vessel into crushed ice. Then the reaction mixture was transferred onto Whatman GF/B glass-fiber filters, which were soaked in a 0.3% polyethyleneimine solution in a mini-funnel.
# [3] = test system: duration of xylazine/ketamine-induced anesthesia; assay: Xylazine/ketamine-induced anesthesia (surrogate of emesis); assay type: in vivo, BALB/c mice; conditions: mice
# Experimental: According to a previously described method and modified by us, hesperidin, hesperidin-3′-O-methylether (each 300 μmol/kg, subcutaneously (s.c.)), or Ro 20-1724 (0.01∼1 μmol/kg, s.c.), a reference drug, was, respectively, injected into 8∼12-week-old female BALB/c mice 1, 1 or 0.25 h prior to an i.p. injection of xylazine (10 mg/kg)/ketamine (70 mg/kg). The vehicle (control) for hesperidin, hesperidin-3′-O-methylether, or Ro 20-1724 was a mixture of DMSO : PEG 400 : saline (1 : 1 : 8, v/v). After the loss of the righting reflex (i.e., when a mouse remained on its back and no longer spontaneously righted itself to a prone position), the duration of anesthesia was measured until its return as the endpoint.
# PDE4 [4] = conditions: read-out: IC50 for PDE4 inhibition; cited from earlier work
# [5] = test system: xylazine/ketamine-induced anesthesia; conditions: administered s.c.; cited from earlier work
# PDE1 = PDE1 activity in homogenate of guinea pig lungs or hearts ([3H]-cAMP/[3H]-cGMP two-step procedure); assay type: biochemical; conditions: guinea pig lung or heart homogenate; read-out: IC50 for PDE1 inhibition
# Experimental: as §1
# PDE3 = PDE3 activity in homogenate of guinea pig lungs or hearts; assay type: biochemical; conditions: guinea pig lung or heart homogenate; read-out: IC50 for PDE3 inhibition
# Experimental: as §1
# [6] = test system: airway hyperresponsiveness in ovalbumin-sensitized and challenged mice; assay: Ovalbumin-induced airway hyperresponsiveness, Penh by whole-body plethysmography; assay type: in vivo, BABL/c mice; conditions: for Penh value at the baseline / Penh value with PBS nebulization: sensitized and challenged mice; for enhancement of Penh values induced by 25 and 50 mg/mL methacholine: vs control (vehicle)
# Experimental: (§2) According to the schedule (Figure 2), ten female BABL/c mice in each group were sensitized by an intraperitoneal (i.p.) injection of 20 μg of ovalbumin emulsified in 2.25 mg of an aluminum hydroxide gel, prepared from aluminum sulfate hexadecahydrate, in a total volume of 100 μL on days 0 and 14. Mice were challenged via the airway using 1% ovalbumin in saline for 30 min on days 28, 29, and 30 by ultrasonic nebulization. After the last ovalbumin challenge, AHR was assessed on day 32 (48 h after 1% ovalbumin provocation) in each group. Each group of mice was orally (p.o.) administered the vehicle (control), 30∼100 μmol/kg of hesperidin or 10∼100 μmol/kg of hesperidin-3′-O-methylether 2 h before and 6 and 24 h after ovalbumin provocation. For comparison, sham-treated mice were challenged with saline instead of 1% ovalbumin (nonchallenged). The vehicle, a mixture of DMSO : PEG 400 : saline (1 : 1 : 8, v/v), hesperidin, or hesperidin-3′-O-methylether was administered (p.o.) at a volume of 0.01 mL/g of body weight. AHR was assessed by barometric plethysmography using a whole-body plethysmograph (WBP) and analyzed using software of Life Science Suite P3 Analysis Modules (Gould, LDS Test and Measurement LLC, Valley View, OH, USA) in unrestrained animals. Mice were placed into the main chamber of the WBP, and the baseline enhanced pause (P enh) value was determined. Then mice were first nebulized with phosphate-buffered saline (PBS), and subsequently with increasing doses (6.25∼50 mg/mL) of methacholine for 3 min for each nebulization, followed by readings of breathing parameters for 3 min after each nebulization to determine P enh values. Twenty-four hours after P enh determination, these mice were anesthetized with pentobarbital (50 mg/kg, i.p.), and the lungs were lavaged via a tracheal tube with PBS (1 × 1.0 mL, 37°C). After lavage, blood was collected from the jugular vein and allowed to sit so that it would coagulate. The collected bronchoalveolar lavage fluid (BALF) and coagulated blood were respectively centrifuged at 630 g for 7 min and at 3700 g for 10 min at 4°C. After centrifugation, the BALF and serum supernatants were stored at −20°C until determinations of cytokines, including interleukin (IL)-2, IL-4, IL-5, tumor necrosis factor (TNF)-α, and interferon (IFN)-γ by flow cytometric methods using mouse Th1/Th2 cytokine CBA kits, and of a total immunoglobulin (Ig)E and IgG2a using ELISA kits (Pharmingen, San Diego, CA, USA) according to the respective recommendations of the manufacturers. Ovalbumin-specific IgE was measured as described previously. Wells were coated with 100 μL of ovalbumin (20 μg/mL) instead of the capture antibody. Levels are expressed in arbitrary units, where 1 arbitrary unit equals the optical density of the sample divided by the optical density of unchallenged mouse serum or BALF (standard). The BALF pellet was resuspended in ACK lysing buffer (1.658 g NH4Cl, 0.2 g KHCO3, and […] EDTA in 200 mL of water) to lyse the residual erythrocytes in each sample. The number of inflammatory cells was counted using a hemocytometer (Hausser Scientific, Horsham, PA, USA). Cytospin slides were stained and cell differentials were determined in a blinded fashion by counting at least 100 cells under light microscopy. All undetectable data (<1 pg/mL) of cytokines were taken as 0.5 pg/mL.
# [7] = test system: inflammatory cells in BALF; assay: Inflammatory cell counts in BALF of sensitized and challenged mice; assay type: in vivo, BABL/c mice; conditions: for numbers of all inflammatory cells examined in BALF: 30 μmol/kg p.o.
# Experimental: as §2
# cytokines in BALF = assay: Cytokine levels in BALF of sensitized and challenged mice (flow cytometric CBA); assay type: in vivo, BABL/c mice
# Experimental: as §2
# [8] = test system: IgE and IgG2a in serum and BALF; assay: Total and ovalbumin-specific IgE and total IgG2a in serum and BALF (ELISA); assay type: in vivo, BABL/c mice
# Experimental: as §2
# IL-4 = test system: IL-4; design: method as in PMID 21287361; conditions: 10 mg/kg (16.38 μmol/kg, p.o.); similar animal model; cited from earlier work
# [9] = guinea pig brain cell membranes
structure (smiles),measurement,setting,value
"CCCCOc1cc(CC2CNC(=O)N2)ccc1OC (stereo not shown) [Ro 20-1724, 4-(3-butoxy-4-methoxybenzyl)-2-imidazolidinone, reference compound]",IC50,PDE4 [1],3.5 ± 0.2 µM
same,EC50,[2]; [9],0.105 ± 0.0131 µM
same,PDE4H/PDE4L ratio,[2],0.03
same,duration of xylazine/ketamine-induced anesthesia,"[3]; 0.01∼1 μmol/kg s.c., 0.25 h before anesthesia",dose-dependently shortened
same,duration of xylazine/ketamine-induced anesthesia,"[3]; 0.03∼1 μmol/kg s.c., 0.25 h before anesthesia",significantly shortened
"COc1cc(O)c2c(c1)O[C@H](c1ccc(OC)c(OC)c1)CC2=O [hesperetin-7,3′-O-dimethylether]",IC50,PDE4 [4],3 µM
COc1ccc([C@@H]2CC(=O)c3c(O)cc(O)cc3O2)cc1O [hesperetin],IC50,PDE4 [4],28.2 µM
same,xylazine/ketamine-induced anesthesia,[5],not influence
COc1ccc(C2CC(=O)c3c(O)cc(O[C@@H]4O[C@H](CO[C@@H]5O[C@@H](C)[C@H](O)[C@@H](O)[C@H]5O)[C@@H](O)[C@H](O)[C@H]4O)cc3O2)cc1OC (stereo partly shown) [hesperidin-3′-O-methylether],IC50,PDE1,13.6 ± 2.3 µM
same,IC50,PDE3,13.2 ± 0.9 µM
same,IC50,PDE4 [1],13.9 ± 2.4 µM
same,EC50,[2]; [9],218 ± 32.1 µM
same,PDE4H/PDE4L ratio,[2],15.7
same,Penh value at the baseline,[6]; 10 μmol/kg p.o.,2.41 ± 0.05
same,Penh value with PBS nebulization,[6]; 10 μmol/kg p.o.,2.41 ± 0.06
same,suppression of AHR,[6]; 30 μmol/kg p.o.,significantly suppressed AHR
same,Penh value at the baseline,[6]; 30 μmol/kg p.o.,2.38 ± 0.06
same,Penh value with PBS nebulization,[6]; 30 μmol/kg p.o.,2.42 ± 0.05
same,Penh value at the baseline,[6]; 100 μmol/kg p.o.,2.41 ± 0.05
same,Penh value with PBS nebulization,[6]; 100 μmol/kg p.o.,2.39 ± 0.06
same,enhancement of Penh values induced by 25 and 50 mg/mL methacholine,[6]; 30∼100 μmol/kg p.o.,significantly attenuated
same,numbers of all types of inflammatory cells in BALF,[7]; 10 μmol/kg p.o.,unaffected
same,numbers of all inflammatory cells examined in BALF,[7],significantly suppressed
same,"increases in numbers of total inflammatory cells, macrophages, lymphocytes, neutrophils, and eosinophils in BALF",[7]; 30∼100 μmol/kg p.o.,significantly suppressed
same,level of IFN-γ in BALF compared to the control,cytokines in BALF; 100 μmol/kg p.o.,significantly enhanced
same,"increases in levels of IL-2, IL-4, TNF-α in BALF",cytokines in BALF; 10∼100 μmol/kg p.o.,significantly suppressed
same,increase in level of IL-5 in BALF,cytokines in BALF; 30∼100 μmol/kg p.o.,significantly suppressed
same,level of total IgG2a in the serum,[8]; 30 μmol/kg p.o.,enhanced
same,total and OVA-specific IgE levels in the serum and BALF,[8]; 30 μmol/kg p.o.,significantly suppressed
same,levels of total and ovalbumin-specific IgE in the serum and BALF,[8]; 30∼100 μmol/kg p.o.,dose-dependently and significantly suppressed
same,reduction of total IgG2a level in the serum,[8]; 30∼100 μmol/kg p.o.,dose-dependently and significantly reversed
COc1ccc([C@@H]2CC(=O)c3c(O)cc(O[C@@H]4O[C@H](CO[C@@H]5O[C@@H](C)[C@H](O)[C@@H](O)[C@H]5O)[C@@H](O)[C@H](O)[C@H]4O)cc3O2)cc1O [hesperidin],IC50,PDE1,> 100 µM
same,IC50,PDE3,> 100 µM
same,IC50,PDE4 [1],> 100 µM
same,EC50,[2]; [9],> 300 µM
same,displacement of 2 nM [3H]-rolipram binding on HARBSs,"[2]; 300 μM, guinea pig brain cell membranes",27.0 ± 1.4%
same,PDE4H/PDE4L ratio,[2],3
same,suppression of AHR,[6]; 30 μmol/kg p.o.,"but not hesperidin, significantly suppressed AHR"
same,Penh value at the baseline,[6]; 30 μmol/kg p.o.,2.39 ± 0.06
same,Penh value with PBS nebulization,[6]; 30 μmol/kg p.o.,2.40 ± 0.05
same,Penh value at the baseline,[6]; 100 μmol/kg p.o.,2.41 ± 0.04
same,Penh value with PBS nebulization,[6]; 100 μmol/kg p.o.,2.39 ± 0.05
same,enhancement of Penh values induced by 25 and 50 mg/mL methacholine,[6]; 100 μmol/kg p.o.,significantly attenuated
same,numbers of all inflammatory cells examined in BALF,[7],unaffected
same,"increases in numbers of total inflammatory cells, macrophages, lymphocytes, neutrophils, and eosinophils in BALF",[7]; 100 μmol/kg p.o.,significantly suppressed
same,increase in level of TNF-α in BALF,cytokines in BALF; 100 μmol/kg p.o.,significantly suppressed
same,level of IFN-γ in BALF compared to the control,cytokines in BALF; 100 μmol/kg p.o.,significantly enhanced
same,"increases in levels of IL-2, IL-4, IL-5 in BALF",cytokines in BALF; 30∼100 μmol/kg p.o.,significantly suppressed
same,total and OVA-specific IgE levels in the serum and BALF,[8]; 30 μmol/kg p.o.,"but not hesperidin, significantly suppressed"
same,levels of total and ovalbumin-specific IgE in the BALF and serum,[8]; 100 μmol/kg p.o.,significantly suppressed
same,reduction of total IgG2a level in the serum,[8]; 100 μmol/kg p.o.,significantly reversed
same,duration of xylazine/ketamine-induced anesthesia,"[3]; 300 μmol/kg s.c., 1 h before anesthesia","Neither hesperidin nor hesperidin-3′-O-methylether (each 300 μmol/kg, s.c.) influenced the duration"
same,level of IL-4,IL-4,insignificantly inhibit
"Cc1[nH]c(=O)c(C#N)cc1-c1ccncc1 [milrinone, reference compound]",IC50,PDE3,2.7 ± 0.8 µM
"CCOC(=O)C1=C[C@]2(CC)CCCN3CCc4c(n1c1ccccc41)[C@@H]32 [vinpocetine, reference compound]",IC50,PDE1,30.8 ± 1.1 µM
